Assay [1] concerns Dengue 1 virus MY97-10245. The assay is described as follows: High-content imaging cell-based flavivirus immunodetection (HCl-CFI) assay, Dengue 1. The settings on record: for EC50: Dengue virus, A549, 48 h, read-out: Dengue 1 virus MY97-10245 in A549 using HCl [Inhibitor/IC50] Qualified AC50.
In assay [2] the test system is Dengue 3 virus MY05-34640-WT-C6/36. Description: High-content imaging cell-based flavivirus immunodetection (HCl-CFI) assay, Dengue 3. The settings on record: for EC50: Dengue virus, A549, 48 h, read-out: Dengue 3 virus MY05-34640-WT-C6/36 in A549 using HCl [Inhibitor/IC50] Qualified AC50.
In assay [3] the test system is Dengue 4 virus MY01-22713. The assay is described as follows: High-content imaging cell-based flavivirus immunodetection (HCl-CFI) assay, Dengue 4. The settings on record: for EC50: Dengue virus, A549, 48 h, read-out: Dengue 4 virus MY01-22713 in A549 using HCl [Inhibitor/IC50] Qualified AC50, A549 cells, 48 h, viral E protein expression.
In assay [4] the test system is Dengue 2 virus MY97-10340. The assay is described as follows: High-content imaging cell-based flavivirus immunodetection (HCl-CFI) assay, Dengue 2. The settings on record: for EC50: Dengue virus, A549, 48 h, read-out: Dengue 2 virus MY97-10340 in A549 using HCl [Inhibitor/IC50] Qualified AC50, A549 cells, MOI 0.3, 48 h, viral E protein expression. An outline of the steps:
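A549 cells infected at MOI 0.3, treated with 3-fold, 10-point compound dilutions for 48 h. After paraformaldehyde fixation, viral E protein immunostained with 4G2 antibody and nuclei counterstained; imaged by high-content imaging. EC50 = concentration reducing E protein expression by 50%, from dose-response curves.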

Setting [5] is: A549 cells, 48 h, viral E protein expression.

The source of these data is US12012417B2, “N-substituted tetrahydrothienopyridine derivatives and uses thereof” (NOVARTIS AG, priority 2018, dated 2024).

For the molecule `CC1Cc2c(sc(NC(=O)Cc3ccc(S(N)(=O)=O)cc3)c2C#N)CN1Cc1cccc(F)c1` (stereo not shown) [Example 123, N-(3-cyano-6-(3-fluorobenzyl)-5-methyl-4,5,6,7-tetrahydrothieno[2,3-c]pyridin-2-yl)-2-(4-sulfamoylphenyl)acetamide], in assay [1] (setting [5]), the “Dengue 1 virus MY97-10245 in A549 using HCl [Inhibitor/IC50] Qualified AC50” value was “+ (±≥1 μM)”. Moreover, the “Dengue 3 virus MY05-34640-WT-C6/36 in A549 using HCl [Inhibitor/IC50] Qualified AC50” value in assay [2] (setting [5]) was “++ (1 μM>++≥0.1 μM)”. In addition, the “Dengue 4 virus MY01-22713 in A549 using HCl [Inhibitor/IC50] Qualified AC50” value in assay [3] (setting [5]) is “++ (1 μM>++≥0.1 μM)”. The “Dengue 2 virus MY97-10340 in A549 using HCl [Inhibitor/IC50] Qualified AC50” value in assay [4] (A549 cells, MOI 0.3, 48 h, viral E protein expression) is on record as “++ (1 μM>++≥0.1 μM)”.
For the molecule `CC1(C)CS(=O)(=O)c2ccc(CC(=O)Nc3sc4c(c3C#N)CN(Cc3cccc(F)c3)CC4)cc21` [Example 42, N-(3-cyano-5-(3-fluorobenzyl)-4,5,6,7-tetrahydrothieno[3,2-c]pyridin-2-yl)-2-(3,3-dimethyl-1,1-dioxido-2,3-dihydrobenzo[b]thiophen-5-yl)acetamide], the EC50 in assay [1] is 100 to 1000 nM; in assay [2], less than 100 nM; in assay [3], less than 100 nM; in assay [4] it was less than 100 nM.
Consider `CCOc1cc(CC(=O)Nc2sc3c(c2C#N)CN(CC2CC(F)(F)C2)C(C)(C)C3)ccc1S(N)(=O)=O` [Example 78, N-(3-cyano-5-((3,3-difluorocyclobutyl)methyl)-6,6-dimethyl-4,5,6,7-tetrahydrothieno[3,2-c]pyridin-2-yl)-2-(3-ethoxy-4-sulfamoylphenyl)acetamide], for which the EC50 was 100 to 1000 nM in assay [1], less than 100 nM in assay [2], less than 100 nM in assay [3] and less than 100 nM in assay [4].
`COc1cc(S(N)(=O)=O)ccc1CC(=O)Nc1sc2c(c1C#N)CN(CC1CCCCC1)CC2` [Example 19, N-(3-cyano-5-(cyclohexylmethyl)-4,5,6,7-tetrahydrothieno[3,2-c]pyridin-2-yl)-2-(2-methoxy-4-sulfamoylphenyl)acetamide]: the EC50 in assay [1], in assay [2], in assay [3] and in assay [4] was less than 100 nM throughout.
As for `COCCOc1cccc(CC(=O)Nc2sc3c(c2C#N)CN(CC2CCCCC2)CC3)c1` [Example 15, N-(3-cyano-5-(cyclohexylmethyl)-4,5,6,7-tetrahydrothieno[3,2-c]pyridin-2-yl)-2-(3-(2-methoxyethoxy)phenyl)acetamide], the EC50 in assay [1], in assay [2], in assay [3] and in assay [4] was 100 to 1000 nM each time.
Turning to `CNS(=O)(=O)c1ccc(CC(=O)Nc2sc3c(c2C#N)CN(Cc2cccc(F)c2)CC3)cc1` [Example 29, N-(3-cyano-5-(3-fluorobenzyl)-4,5,6,7-tetrahydrothieno[3,2-c]pyridin-2-yl)-2-(4-(N-methylsulfamoyl)phenyl)acetamide], the EC50 was 100 to 1000 nM in assay [1], less than 100 nM in assay [2], less than 100 nM in assay [3] and less than 100 nM in assay [4].
As to `N#Cc1c(NC(=O)Cc2ccc(S(N)(=O)=O)cc2)sc2c1CCN(Cc1c(F)cccc1F)C2` [Example 116, N-(3-cyano-6-(2,6-difluorobenzyl)-4,5,6,7-tetrahydrothieno[2,3-c]pyridin-2-yl)-2-(4-sulfamoylphenyl)acetamide], the EC50 in assay [1] was 100 to 1000 nM; in assay [2] it was less than 100 nM; in assay [3], less than 100 nM; in assay [4] it was less than 100 nM.
Take `CC1(C)Cc2sc(NC(=O)Cc3ccc(S(N)(=O)=O)cc3)c(C#N)c2CN1Cc1cccc(F)c1` [Example 81, N-(3-cyano-5-(3-fluorobenzyl)-6,6-dimethyl-4,5,6,7-tetrahydrothieno[3,2-c]pyridin-2-yl)-2-(4-sulfamoylphenyl)acetamide]: the EC50 in assay [1] is 100 to 1000 nM; in assay [2] it was less than 100 nM; in assay [3], less than 100 nM; in assay [4] it was less than 100 nM.
Take `CC1Cc2sc(NC(=O)Cc3ccc(S(C)(=O)=O)cc3)c(C#N)c2CN1Cc1cc(Cl)ccc1Cl` (stereo not shown) [Example 70, N-(3-cyano-5-(2,5-dichlorobenzyl)-6-methyl-4,5,6,7-tetrahydrothieno[3,2-c]pyridin-2-yl)-2-(4-(methylsulfonyl)phenyl)acetamide]: the EC50 is 100 to 1000 nM in assay [1], less than 100 nM in assay [2], less than 100 nM in assay [3] and less than 100 nM in assay [4].
Turning to `N#Cc1c(NC(=O)Cc2ccc(S(N)(=O)=O)cc2)sc2c1CCN(Cc1ccc(F)cc1Cl)C2` [Example 107, N-(6-(2-chloro-4-fluorobenzyl)-3-cyano-4,5,6,7-tetrahydrothieno[2,3-c]pyridin-2-yl)-2-(4-sulfamoylphenyl)acetamide], the EC50 in assay [1] was 100 to 1000 nM; in assay [2] it was 100 to 1000 nM; in assay [3], less than 100 nM; in assay [4] it was 100 to 1000 nM.
On to `CN(C)S(=O)(=O)c1ccc(CC(=O)Nc2sc3c(c2C#N)CN(CC2CCCCC2)CC3)cc1` [Example 14, N-(3-cyano-5-(cyclohexylmethyl)-4,5,6,7-tetrahydrothieno[3,2-c]pyridin-2-yl)-2-(4-(N,N-dimethylsulfamoyl)phenyl)acetamide], for which the EC50 in assay [1], in assay [2], in assay [3] and in assay [4] was 100 to 1000 nM each time.
For the molecule `CC1Cc2sc(NC(=O)Cc3ccc(S(N)(=O)=O)cc3)c(C#N)c2CN1Cc1cc(F)cc(F)c1` (stereo not shown) [Example 85, N-(3-cyano-5-(3,5-difluorobenzyl)-6-methyl-4,5,6,7-tetrahydrothieno[3,2-c]pyridin-2-yl)-2-(4-sulfamoylphenyl)acetamide], the EC50 in assay [1] was 100 to 1000 nM; in assay [2], less than 100 nM; in assay [3] it was less than 100 nM; in assay [4], less than 100 nM.
Consider `CS(=O)(=O)Nc1ccc(CC(=O)Nc2sc3c(c2C#N)CN(Cc2cccc(F)c2)CC3)cc1` [Example 46, N-(3-cyano-5-(3-fluorobenzyl)-4,5,6,7-tetrahydrothieno[3,2-c]pyridin-2-yl)-2-(4-(methylsulfonamido)phenyl)acetamide], for which the EC50 in assay [1], in assay [2], in assay [3] and in assay [4] was 100 to 1000 nM each time.
On to `Cc1ccccc1CN1CCc2c(sc(NC(=O)Cc3ccc(S(C)(=O)=O)cc3)c2C#N)C1` [Example 103, N-(3-cyano-6-(2-methylbenzyl)-4,5,6,7-tetrahydrothieno[2,3-c]pyridin-2-yl)-2-(4-(methylsulfonyl)phenyl)acetamide], for which the EC50 in assay [1], in assay [2], in assay [3] and in assay [4] was 100 to 1000 nM each time.
Consider `N#Cc1c(NC(=O)Cc2ccc3c(c2)CCS3(=O)=O)sc2c1CN(Cc1cccc(F)c1)CC2` [Example 33, N-(3-cyano-5-(3-fluorobenzyl)-4,5,6,7-tetrahydrothieno[3,2-c]pyridin-2-yl)-2-(1,1-dioxido-2,3-dihydrobenzo[b]thiophen-5-yl)acetamide], for which the EC50 was 100 to 1000 nM in assay [1], less than 100 nM in assay [2], less than 100 nM in assay [3] and 100 to 1000 nM in assay [4].
Turning to `COCCOc1cccc(CC(=O)Nc2sc3c(c2C#N)CN(Cc2cccc(F)c2)CC3)c1` [Example 31, N-(3-cyano-5-(3-fluorobenzyl)-4,5,6,7-tetrahydrothieno[3,2-c]pyridin-2-yl)-2-(3-(2-methoxyethoxy)phenyl)acetamide], the EC50 in assay [1] was more than 1000 nM; in assay [2], 100 to 1000 nM; in assay [3], 100 to 1000 nM; in assay [4], 100 to 1000 nM.
